Results taken from patent publication US8481497B2, “Therapeutic agent for cancer, and method for treatment of cancer” (Sapporo Medical University, priority 2007, dated 2013).

Key:
FGFR1 in KMS12BM cells = experiment: FGFR1 expression at mRNA level in multiple myeloma cell line by DNA array; format: cell-based; settings: 1 micro M decitabine (72 hours) and/or 0.5 micro g/mL ADR (24 hours)
Method: Using a DNA array, 1 micro M decitabine and/or 0.5 micro g/mL ADR was administered to KMS12BM cells and a change in expression of FGFR1 at the mRNA level was examined 72 hours after administration of decitabine and 24 hours after administration of ADR. In the graph, the expression level ratio relative to the expression level in the cell line to which no drug was administered is shown on the vertical axis. In the graph, the decitabine administration group is shown by Aza.

FGFR1 = settings: human hepatic stellate cells; cited from earlier work

Molecule | expression level of FGFR1 at the mRNA level (FGFR1 in KMS12BM cells) | expression of FGFR1 (FGFR1)
COc1cccc2c1C(=O)c1c(O)c3c(c(O)c1C2=O)C[C@@](O)(C(=O)CO)C[C@@H]3O[C@H]1C[C@H](N)[C@H](O)[C@H](C)O1 [ADR, adriamycin] | increased | 
interferon-gamma: type II interferon, a cytokine (protein, UniProt P01579 24-161, looked up) Interferon gamma: QDPYVKEAENLKKYFNAGHSDVADNGTLFLGILKNWKEESDRKIMQSQIVSFYFKLFKNFKDDQSIQKSVETIKEDMNVKFFNSNKKKRDDFEKLTNYSVTDLNVQRKAIHELIQVMAELSPAAKTGKRKRSQMLFRG |  | reduces
